According to ChEMBL document CHEMBL1201862, “PubChem BioAssay data set” (2004):
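Interpolation was linear, between the two tested concentrations surrounding the appropriate level; five concentrations were tested over 48 hours in 96-well plates. Abbreviation: GI50, concentration required for 50% inhibition of growth.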 Active and inactive are the calls of the source. No stated cut-off is given here; in the data, active = GI50 up to about 1.1 µM and inactive = higher.

Experiments:
Assay in all cases: NCI anticancer screen, dose series, 48 h
UACC-257 = system: UACC-257
HCT-116 = system: HCT-116
U-251 = system: U-251
SK-MEL-5 = system: SK-MEL-5
HCT-15 = system: HCT-15
HT-29 = system: HT-29
UO-31 = system: UO-31
A498 = system: A498
MOLT-4 = system: MOLT-4
SK-MEL-2 = system: SK-MEL-2
EKVX = system: EKVX
NCI-H23 = system: NCI-H23
UACC-62 = system: UACC-62
LOX IMVI = system: LOX IMVI
KM12 = system: KM12
SF-268 = system: SF-268
HL-60 = system: HL-60
NCI-H460 = system: NCI-H460
HOP-62 = system: HOP-62
K562 = system: K562

## CC(=O)C(CN1CCCCC1)C(c1ccccc1)c1c(O)c2ccccc2oc1=O (stereo not drawn)
UACC-257
  GI50: > 100 µM (inactive)
HCT-116
  GI50: > 100 µM (inactive)
U-251
  GI50: > 100 µM (inactive)
SK-MEL-5
  GI50: > 100 µM (inactive)
HCT-15
  GI50: > 100 µM
HT-29
  GI50: > 100 µM (inactive)
UO-31
  GI50: > 100 µM (inactive)
A498
  GI50: > 100 µM (inactive)
MOLT-4
  GI50: > 100 µM (inactive)
SK-MEL-2
  GI50: > 100 µM (inactive)
EKVX
  GI50: > 100 µM (inactive)
NCI-H23
  GI50: > 100 µM (inactive)
UACC-62
  GI50: > 100 µM (inactive)
LOX IMVI
  GI50: > 100 µM (inactive)
KM12
  GI50: > 100 µM (inactive)
SF-268
  GI50: > 100 µM (inactive)
HL-60
  GI50: 59.4 µM (inactive)
NCI-H460
  GI50: > 100 µM (inactive)
HOP-62
  GI50: > 100 µM (inactive)
K562
  GI50: > 100 µM (inactive)

## Cc1cc(O)nc(NN2C(Cl)C(=O)C2c2cccc(Cl)c2)n1 (stereo not drawn)
UACC-257
  GI50: 32.8 µM (inactive)
HCT-116
  GI50: > 10 µM (inactive)
U-251
  GI50: 30.5 µM (inactive)
SK-MEL-5
  GI50: 18.4 µM (inactive)
HCT-15
  GI50: 17.4 µM
HT-29
  GI50: 23.4 µM (inactive)
UO-31
  GI50: 24.2 µM (inactive)
MOLT-4
  GI50: 13.8 µM (inactive)
SK-MEL-2
  GI50: 16.7 µM (inactive)
EKVX
  GI50: 36.6 µM (inactive)
NCI-H23
  GI50: 20.1 µM (inactive)
UACC-62
  GI50: 23.1 µM (inactive)
LOX IMVI
  GI50: 14.4 µM (inactive)
KM12
  GI50: 21.7 µM (inactive)
SF-268
  GI50: 18.5 µM (inactive)
HL-60
  GI50: 16 µM (inactive)
NCI-H460
  GI50: 18.4 µM (inactive)
HOP-62
  GI50: 27.1 µM (inactive)
K562
  GI50: 17.6 µM (inactive)

## O=c1ccc2ccc(CBr)cc2o1
UACC-257
  GI50: 11.7 µM (inactive)
HCT-116
  GI50: 1.88 µM (inactive)
U-251
  GI50: 1.81 µM (inactive)
SK-MEL-5
  GI50: 2.79 µM (inactive)
HCT-15
  GI50: 1.87 µM
HT-29
  GI50: 2.48 µM (inactive)
A498
  GI50: 16 µM (inactive)
MOLT-4
  GI50: 2.29 µM (inactive)
SK-MEL-2
  GI50: 11.4 µM (inactive)
EKVX
  GI50: 2.49 µM (inactive)
NCI-H23
  GI50: 2.92 µM (inactive)
UACC-62
  GI50: 10.8 µM (inactive)
LOX IMVI
  GI50: 1.5 µM (inactive)
HL-60
  GI50: 1.76 µM (inactive)
NCI-H460
  GI50: 10.8 µM (inactive)
HOP-62
  GI50: 17 µM (inactive)
K562
  GI50: 2.18 µM (inactive)

## COc1cc(C2S/C(=C/c3ccccc3)C(=O)N2c2ccccc2Cl)cc(OC)c1OC (stereo not drawn)
UACC-257
  GI50: 45.5 µM (inactive)
HCT-116
  GI50: 19 µM (inactive)
U-251
  GI50: 22.1 µM (inactive)
SK-MEL-5
  GI50: 20.7 µM (inactive)
HCT-15
  GI50: 27.5 µM
HT-29
  GI50: 19.1 µM (inactive)
UO-31
  GI50: 28.5 µM (inactive)
A498
  GI50: 43.4 µM (inactive)
MOLT-4
  GI50: 41.8 µM (inactive)
SK-MEL-2
  GI50: 16 µM (inactive)
EKVX
  GI50: 13.6 µM (inactive)
NCI-H23
  GI50: 24.3 µM (inactive)
UACC-62
  GI50: 20 µM (inactive)
LOX IMVI
  GI50: 18.7 µM (inactive)
KM12
  GI50: 22 µM (inactive)
SF-268
  GI50: 30.3 µM (inactive)
HOP-62
  GI50: 31.3 µM (inactive)

## C=C1C(=O)O[C@@H]2[C@H](O)[C@@H](C)[C@@H]3C=CC(=O)[C@@]3(C)[C@@H](OC(=O)/C(C)=C/C)[C@H]12
UACC-257
  GI50: 0.718 µM (active)
HCT-116
  GI50: 0.3 µM (active)
U-251
  GI50: 0.733 µM (active)
SK-MEL-5
  GI50: 1.18 µM (inactive)
HCT-15
  GI50: 0.377 µM
HT-29
  GI50: 0.745 µM (active)
UO-31
  GI50: 5.31 µM (inactive)
A498
  GI50: 1.32 µM (inactive)
MOLT-4
  GI50: 0.344 µM (active)
SK-MEL-2
  GI50: 0.557 µM (active)
EKVX
  GI50: 0.774 µM (active)
NCI-H23
  GI50: 0.845 µM (active)
UACC-62
  GI50: 0.342 µM (active)
LOX IMVI
  GI50: 0.869 µM (active)
KM12
  GI50: 1.01 µM (active)
SF-268
  GI50: 0.437 µM (active)
HL-60
  GI50: 0.355 µM (active)
NCI-H460
  GI50: 0.412 µM (active)
HOP-62
  GI50: 7.46 µM (inactive)
K562
  GI50: 0.483 µM (active)

## CCCCCCCCCCCCSC(=S)c1c(C)[nH]n(CCCCCCCCCCCC)c1=O
UACC-257
  GI50: > 100 µM (inactive)
HCT-116
  GI50: 43.6 µM (inactive)
U-251
  GI50: > 100 µM (inactive)
SK-MEL-5
  GI50: > 100 µM (inactive)
HCT-15
  GI50: 65.3 µM
HT-29
  GI50: 74.1 µM (inactive)
UO-31
  GI50: 88.1 µM (inactive)
A498
  GI50: > 100 µM (inactive)
MOLT-4
  GI50: > 100 µM (inactive)
SK-MEL-2
  GI50: 78.2 µM (inactive)
EKVX
  GI50: 27.5 µM (inactive)
NCI-H23
  GI50: > 100 µM (inactive)
UACC-62
  GI50: > 100 µM (inactive)
LOX IMVI
  GI50: > 100 µM (inactive)
KM12
  GI50: > 100 µM (inactive)
SF-268
  GI50: 48.9 µM (inactive)
HL-60
  GI50: 66.7 µM (inactive)
NCI-H460
  GI50: 50.5 µM (inactive)
HOP-62
  GI50: > 100 µM (inactive)
K562
  GI50: > 100 µM (inactive)

## COc1ccc2nc(-n3c(/C=C/c4ccccc4O)nc4ccccc4c3=O)sc2c1
UACC-257
  GI50: > 100 µM (inactive)
HCT-116
  GI50: 25.5 µM (inactive)
U-251
  GI50: > 100 µM (inactive)
SK-MEL-5
  GI50: 19.7 µM (inactive)
HCT-15
  GI50: 60.1 µM
HT-29
  GI50: 50.2 µM (inactive)
UO-31
  GI50: 64.6 µM (inactive)
A498
  GI50: 29.9 µM (inactive)
MOLT-4
  GI50: 32.9 µM (inactive)
SK-MEL-2
  GI50: 88.3 µM (inactive)
EKVX
  GI50: 8.51 µM (inactive)
NCI-H23
  GI50: 47.6 µM (inactive)
UACC-62
  GI50: 61.5 µM (inactive)
LOX IMVI
  GI50: 69.5 µM (inactive)
KM12
  GI50: 64.4 µM (inactive)
SF-268
  GI50: > 100 µM (inactive)
HL-60
  GI50: 43.4 µM (inactive)
NCI-H460
  GI50: > 100 µM (inactive)
HOP-62
  GI50: > 100 µM (inactive)
K562
  GI50: 20.4 µM (inactive)
